Results reported in US4845109A, “Alkoxy-and phenoxy alkyl esters of 2,6-dimethyl-4-(2-difluoromethoxyphenyl)-1,4-dihydropyridine-3,5-carboxy lic acid” (priority 1988, dated 1989).

Legend:
coronary artery = assay: Blood circulation rate in coronary artery of narcotized dogs; type: in vivo; conditions: intravenous
cerebral vessels = conditions: background art; cited from earlier work
arterial pressure [1] = assay: Acute experiments on narcotized cats: reduction of arterial pressure (intravenous); type: in vivo; conditions: for ED30: Felis catus, read-out: ED30 (average dose that reduces the arterial pressure by 30%)
Procedure: In acute experiments on cats narcotized with glucochloralose and urethane (90 and 200 mg/kg, respectively, administered intraperitoneally), there were recorded arterial pressure from the common carotid artery, respiration and an ECG with standard lead II. The compounds under study were administered intravenously as a dimethylacetamide solution.
(§1) Average doses of the compounds under study that
(§2) reduce the arterial pressure in narcotized animals by 30%

in vivo = conditions: mouse, ip
Text: Acute toxicity of the compounds involved compared
with the known drugs tested on albino mice
(intraperitoneal administration)

carotid artery = assay: Blood circulation rate in carotid artery of narcotized dogs; type: in vivo; conditions: intravenous
vertebral artery = assay: Blood circulation rate in vertebral artery of narcotized dogs; type: in vivo; conditions: intravenous
femoral artery = assay: Blood circulation rate in femoral artery of narcotized dogs; type: in vivo; conditions: intravenous
[2] = test system: systolic arterial pressure; assay: Hypotensive effect in spontaneously hypertensive rats (SHR), oral; type: in vivo; conditions: for Hypotensive effect compared with Niphedipin / Hypotensive potency: 3 and 10 mg/kg
[3] = background art, occasionally; cited from earlier work
arterial pressure [4] = assay: Hypotensive activity in narcotized rats: reduction of arterial pressure; type: in vivo; conditions: Rattus norvegicus; narcotized rats (urethane); read-out: ED30 (average dose that reduces the arterial pressure by 30%)
Text: as §1, §2

[5] = test system: arteries supplying blood to the heart and brain; assay: Systolic arterial pressure and blood circulation in arteries of heart and brain of narcotized dogs; type: in vivo; conditions: intravenous

SMILES: COC(=O)C1=C(C)NC(C)=C(C(=O)OCCN(C)Cc2ccccc2)C1c1cccc([N+](=O)[O-])c1.Cl (stereo not drawn) [Nicardipin, 2,6-dimethyl-3-methoxy-carbonyl-4-(3-nitrophenyl)-5-[2(N-benzyl-N-methylamino)ethoxycarbonyl]-1,4-dihydropyridine hydrochloride, reference compound]
- Blood circulation rate in coronary artery, percentage increase (coronary artery; 0.001 mg/kg): 12%
- Blood circulation rate in coronary artery, persistence (coronary artery; 0.001 mg/kg): 5 min
- Blood circulation rate in coronary artery, percentage increase (coronary artery; 0.002 mg/kg): 30%
- Blood circulation rate in coronary artery, persistence (coronary artery; 0.002 mg/kg): 12 min
- Activity (cerebral vessels): inadequate activity
- Vasodilation activity (cerebral vessels): vasodilation activity preponderantly towards cerebral vessels
- Persistence of hypotensive effect (arterial pressure [1]): 8 min
- ED30 (arterial pressure [1]): 0.025 mg/kg
- LD50 (in vivo): 225 mg/kg
- Blood circulation rate in carotid artery, percentage increase (carotid artery; 0.001 mg/kg): 14%
- Blood circulation rate in carotid artery, persistence (carotid artery; 0.001 mg/kg): 6 min
- Blood circulation rate in carotid artery, percentage increase (carotid artery; 0.002 mg/kg): 60%
- Blood circulation rate in carotid artery, persistence (carotid artery; 0.002 mg/kg): 12 min
- Blood circulation rate in vertebral artery, percentage increase (vertebral artery; 0.001 mg/kg): 14%
- Blood circulation rate in vertebral artery, persistence (vertebral artery; 0.001 mg/kg): 6 min
- Blood circulation rate in vertebral artery, percentage increase (vertebral artery; 0.002 mg/kg): 40%
- Blood circulation rate in vertebral artery, persistence (vertebral artery; 0.002 mg/kg): 20 min
- Blood circulation rate in femoral artery, percentage increase (femoral artery; 0.001 mg/kg): 10%
- Blood circulation rate in femoral artery, persistence (femoral artery; 0.001 mg/kg): 5 min
- Blood circulation rate in femoral artery, percentage increase (femoral artery; 0.002 mg/kg): 26%
- Blood circulation rate in femoral artery, persistence (femoral artery; 0.002 mg/kg): 10 min

SMILES: COC(=O)C1=C(C)NC(C)=C(C(=O)OC)C1c1ccccc1[N+](=O)[O-] [Niphedipin, 2,6-dimethyl-3,5-dimethoxycarbonyl-4-(2-nitrophenyl)-1,4-dihydropyrine, reference compound]
- Tachycardia [2]: tachycardia
- Persistence of hypotensive effect (arterial pressure [1]): 6 min
- ED30 (arterial pressure [1]): 0.02 mg/kg
- Side effects [3]: dizziness and nausea

SMILES: CCOCCOC(=O)C1=C(C)NC(C)=C(C(=O)OCCOCC)C1c1ccccc1OC(F)F [R = C2 H4 OC2 H5, 2,6-dimethyl-3,5-bis-(2-ethoxyethoxycarbonyl)-4-(2-difluoromethoxyphenyl)-1,4-dihydropyridine]
- Tachycardia [2]: not causative of tachycardia
- Hypotensive effect compared with Niphedipin [2]: does not differ substantially
- Hypotensive potency [2]: most markedly pronounced hypotensive potency
- ED30 (arterial pressure [4]): 0.018 mg/kg
- Persistence of hypotensive effect (arterial pressure [1]): 6 min
- ED30 (arterial pressure [1]): 0.01 mg/kg
- LD50 (in vivo): 2200 mg/kg

SMILES: CCCOCCOC(=O)C1=C(C)NC(C)=C(C(=O)OCCOCCC)C1c1ccccc1OC(F)F [R = C2 H4 OC3 H7, 2,6-dimethyl-3,5-bis-(2-propoxyethoxycarbonyl)-4-(2-difluoromethoxyphenyl)-1,4-dihydropyridine]
- Hypotensive effect compared with Niphedipin [2]: does not differ substantially
- Hypotensive potency [2]: most markedly pronounced hypotensive potency
- Blood circulation rate in coronary artery, percentage increase (coronary artery; 0.0005 mg/kg): 10%
- Blood circulation rate in coronary artery, persistence (coronary artery; 0.0005 mg/kg): 5 min
- Blood circulation rate in coronary artery, percentage increase (coronary artery; 0.001 mg/kg): 30%
- Blood circulation rate in coronary artery, persistence (coronary artery; 0.001 mg/kg): 8 min
- Blood circulation rate in coronary artery, percentage increase (coronary artery; 0.002 mg/kg): 50%
- Blood circulation rate in coronary artery, persistence (coronary artery; 0.002 mg/kg): 12 min
- ED30 (arterial pressure [4]): 0.008 mg/kg
- Persistence of hypotensive effect (arterial pressure [1]): 7 min
- ED30 (arterial pressure [1]): 0.0045 mg/kg
- LD50 (in vivo): 450 mg/kg
- Intensity and duration of effect on blood circulation rate compared with Nicardipin [5]: much more potent
- Blood circulation rate in carotid artery, percentage increase (carotid artery; 0.0005 mg/kg): 17%
- Blood circulation rate in carotid artery, persistence (carotid artery; 0.0005 mg/kg): 5 min
- Blood circulation rate in carotid artery, percentage increase (carotid artery; 0.001 mg/kg): 60%
- Blood circulation rate in carotid artery, persistence (carotid artery; 0.001 mg/kg): 15 min
- Blood circulation rate in carotid artery, percentage increase (carotid artery; 0.002 mg/kg): 100%
- Blood circulation rate in carotid artery, persistence (carotid artery; 0.002 mg/kg): 20 min
- Blood circulation rate in vertebral artery, percentage increase (vertebral artery; 0.0005 mg/kg): 20%
- Blood circulation rate in vertebral artery, persistence (vertebral artery; 0.0005 mg/kg): 8 min
- Blood circulation rate in vertebral artery, percentage increase (vertebral artery; 0.001 mg/kg): 90%
- Blood circulation rate in vertebral artery, persistence (vertebral artery; 0.001 mg/kg): 18 min
- Blood circulation rate in vertebral artery, percentage increase (vertebral artery; 0.002 mg/kg): 110%
- Blood circulation rate in vertebral artery, persistence (vertebral artery; 0.002 mg/kg): 20 min
- Blood circulation rate in femoral artery, percentage increase (femoral artery; 0.0005 mg/kg): 0%
- Blood circulation rate in femoral artery, percentage increase (femoral artery; 0.001 mg/kg): 10%
- Blood circulation rate in femoral artery, persistence (femoral artery; 0.001 mg/kg): 8 min
- Blood circulation rate in femoral artery, percentage increase (femoral artery; 0.002 mg/kg): 25%
- Blood circulation rate in femoral artery, persistence (femoral artery; 0.002 mg/kg): 10 min

SMILES: CC1=C(C(=O)OCCOc2ccccc2)C(c2ccccc2OC(F)F)C(C(=O)OCCOc2ccccc2)=C(C)N1 [R = C2 H4 OC6 H5, 2,6-dimethyl-3,5-bis-(2phenoxyethoxycarbonyl)-4-(2difluoromethoxyphenyl)-1,4-dihydropyridine]
- Hypotensive effect compared with Niphedipin [2]: does not differ substantially
- Hypotensive potency [2]: most markedly pronounced hypotensive potency
- ED30 (arterial pressure [4]): 0.03 mg/kg
- Persistence of hypotensive effect (arterial pressure [1]): 7 min
- ED30 (arterial pressure [1]): 0.02 mg/kg
- LD50 (in vivo): 790 mg/kg

SMILES: COCCOC(=O)C1=C(C)NC(C)=C(C(=O)OCCOC)C1c1ccccc1OC(F)F [R = C2 H4 OCH3, 2,6-dimethyl-3,5-bis-(2-methoxyethoxycarbonyl)-4-(2-difluoromethoxyphenyl)-1,4-dihydropyridine]
- ED30 (arterial pressure [4]): 0.04 mg/kg
- Persistence of hypotensive effect (arterial pressure [1]): 3 min
- ED30 (arterial pressure [1]): 0.045 mg/kg
- LD50 (in vivo): 1130 mg/kg

SMILES: COCC(C)OC(=O)C1=C(C)NC(C)=C(C(=O)OC(C)COC)C1c1ccccc1OC(F)F (stereo not drawn) [R = CH(CH3)CH2 OCH3, 2,6-dimethyl-3,5-bis-[(1-methyl-2-methoxy)-ethoxycarbonyl]-4-(2-difluoromethoxyphenyl)-1,4-dihydropyridine]
- Persistence of hypotensive effect (arterial pressure [1]): 10 min
- ED30 (arterial pressure [1]): 0.038 mg/kg
- LD50 (in vivo): 2500 mg/kg
